Laboratory results as given in patent US11731943B2, “Therapeutic compounds, compositions and methods of use thereof” (priority 2016, dated 2023).
pKi: −log10 of the molar value. Read-outs that look alike come from different tables or passages of the source.

Legend:
[1] = biological target: isolated recombinant JAK2 kinase domain (Homo sapiens (Human), UniProt O60674); assay: JAK2 enzyme assay (Caliper LabChip, Ki); assay type: biochemical
Method: (§1) JAK Enzyme Assays were carried out as follows:
The activity of the isolated recombinant JAK1 and JAK2 kinase domain was measured by monitoring phosphorylation of a peptide derived from JAK3 ([…] fluorescently labeled on the N-terminus with 5-carboxyfluorescein) using the Caliper LabChip® technology (Caliper Life Sciences, Hopkinton, Mass.). […] Reactions were incubated at 22° C. in 384-well polypropylene microtiter plates for 30 minutes and then stopped by addition of 25 μL of an EDTA containing solution (100 mM HEPES buffer (pH 7.2), 0.015% Brij-35, 150 mM EDTA), resulting in a final EDTA concentration of 50 mM. After termination of the kinase reaction, the proportion of phosphorylated product was determined as a fraction of total peptide substrate using the Caliper LabChip® 3000 according to the manufacturer's specifications.

[2] = biological target: isolated recombinant JAK1 kinase domain (Homo sapiens (Human), UniProt P23458); assay: JAK1 enzyme assay (Caliper LabChip, Ki); assay type: biochemical
Method: as §1
The activity of the isolated recombinant JAK1 and JAK2 kinase domain was measured by monitoring phosphorylation of a peptide derived from JAK3 (Val-Ala-Leu-Val-Asp-Gly-Tyr-Phe-Arg-Leu-Thr-Thr, fluorescently labeled on the N-terminus with 5-carboxyfluorescein) using the Caliper LabChip® technology (Caliper Life Sciences, Hopkinton, Mass.). […] Reactions were incubated at 22° C. in 384-well polypropylene microtiter plates for 30 minutes and then stopped by addition of 25 μL of an EDTA containing solution (100 mM HEPES buffer (pH 7.2), 0.015% Brij-35, 150 mM EDTA), resulting in a final EDTA concentration of 50 mM. After termination of the kinase reaction, the proportion of phosphorylated product was determined as a fraction of total peptide substrate using the Caliper LabChip® 3000 according to the manufacturer's specifications. Ki values were then determined using the Morrison tight binding model (Morrison, J. F., Biochim. Biophys. Acta. 185:269-296 (1969); William, J. W. and Morrison, J. F., Meth. Enzymol., 63:437-467 (1979)) modified for ATP-competitive inhibition [Ki=Ki,app/(1+[ATP]/Km,app)].

Chain of isolated recombinant JAK1 kinase domain (P23458 875-1153): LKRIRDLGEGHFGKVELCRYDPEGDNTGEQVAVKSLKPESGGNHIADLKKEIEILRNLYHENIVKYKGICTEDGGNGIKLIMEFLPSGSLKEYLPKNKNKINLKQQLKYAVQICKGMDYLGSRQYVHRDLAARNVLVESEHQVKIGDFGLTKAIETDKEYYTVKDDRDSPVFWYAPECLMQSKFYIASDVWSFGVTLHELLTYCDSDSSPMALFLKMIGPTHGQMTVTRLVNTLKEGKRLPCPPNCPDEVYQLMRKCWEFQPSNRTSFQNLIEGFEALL
Chain of isolated recombinant JAK2 kinase domain (O60674 849-1124): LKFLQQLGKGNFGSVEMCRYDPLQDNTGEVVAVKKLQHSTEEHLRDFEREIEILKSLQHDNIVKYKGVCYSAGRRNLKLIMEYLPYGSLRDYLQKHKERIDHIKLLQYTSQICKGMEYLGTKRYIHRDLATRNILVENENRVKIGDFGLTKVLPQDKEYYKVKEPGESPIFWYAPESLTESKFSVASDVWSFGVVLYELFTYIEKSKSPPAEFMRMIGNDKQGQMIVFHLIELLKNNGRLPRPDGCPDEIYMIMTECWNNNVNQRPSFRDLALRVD

Compound	pKi [1]	pKi ([2]; read-out: JAK1 Ki)	pKi [2]
N#CCC1(n2cc(C(N)=O)c(NC(=O)[C@@H]3C[C@@H]3F)n2)CCN(CC(F)(F)F)CC1 [Example 28]	7.51	7.92	–
N#CCC1(n2cc(C(N)=O)c(NC(=O)[C@H]3C[C@H]3F)n2)CCN(CC(F)(F)F)CC1 [Example 29]	7.92	8.00	–
N#CCC1(n2cc(C(N)=O)c(NC(=O)[C@@H]3C[C@H]3F)n2)CCN(CC(F)(F)F)CC1 [Example 30]	7.27	8.07	–
N#CCC1(n2cc(C(N)=O)c(NC(=O)[C@H]3CC34CCC4)n2)CCN(CC(F)(F)F)CC1 [Example 31]	6.72	7.02	–
C[C@@H]1C[C@H]1C(=O)Nc1nn(C2(CC#N)CCN(CC(F)(F)F)CC2)cc1C(N)=O [Example 32]	6.71	7.14	–
N#CCC1(n2cc(C(N)=O)c(NC(=O)C3CC3)n2)CCCCC1 [Example 33]	7.12	7.81	–
CC(C)(C)OC(=O)N[C@H]1CC[C@](CC#N)(n2cc(C(N)=O)c(NC(=O)C3CC3)n2)CC1 [Example 35]	6.56	–	7.69
CC(C)(C)OC(=O)N[C@H]1CC[C@@](CC#N)(n2cc(C(N)=O)c(NC(=O)C3CC3)n2)CC1 [Example 36]	< 6.50	–	< 6.25
N#CCC1(n2cc(C(N)=O)c(NC(=O)C3CC3)n2)CCN(Cc2ccccc2-c2ccccc2)CC1 [Example 38]	6.97	8.09	–
N#CCC1(n2cc(C(N)=O)c(NC(=O)C3CC3)n2)CCN(Cc2ccccc2)CC1 [Example 40]	7.01	8.10	–
COc1ccccc1CN1CCC(CC#N)(n2cc(C(N)=O)c(NC(=O)C3CC3)n2)CC1 [Example 41]	< 6.50	7.27	–
COc1cccc(CN2CCC(CC#N)(n3cc(C(N)=O)c(NC(=O)C4CC4)n3)CC2)c1 [Example 42]	7.02	8.11	–
COc1ccc(CN2CCC(CC#N)(n3cc(C(N)=O)c(NC(=O)C4CC4)n3)CC2)cc1 [Example 43]	6.77	7.59	–
CS(=O)(=O)Nc1ccccc1CN1CCC(CC#N)(n2cc(C(N)=O)c(NC(=O)C3CC3)n2)CC1 [Example 44]	6.76	7.56	–
CS(=O)(=O)Nc1ccc(CN2CCC(CC#N)(n3cc(C(N)=O)c(NC(=O)C4CC4)n3)CC2)cc1 [Example 46]	6.55	7.38	–
N#CCC1(n2cc(C(N)=O)c(NC(=O)C3CC3)n2)CCN(Cc2ccccc2OC(F)(F)F)CC1 [Example 47]	6.60	7.47	–
N#CCC1(n2cc(C(N)=O)c(NC(=O)C3CC3)n2)CCN(Cc2cccc(OC(F)(F)F)c2)CC1 [Example 48]	6.72	7.56	–
N#CCC1(n2cc(C(N)=O)c(NC(=O)C3CC3)n2)CCN(Cc2ccc(OC(F)(F)F)cc2)CC1 [Example 49]	6.72	7.63	–
N#CCC1(n2cc(C(N)=O)c(NC(=O)C3CC3)n2)CCN(Cc2ccccc2Br)CC1 [Example 50]	7.18	8.21	–
N#CCC1(n2cc(C(N)=O)c(NC(=O)C3CC3)n2)CCN(Cc2cccc(Br)c2)CC1 [Example 51]	7.27	8.19	–
N#CCC1(n2cc(C(N)=O)c(NC(=O)C3CC3)n2)CCN(Cc2ccccc2I)CC1 [Example 53]	7.00	8.15	–
N#CCC1(n2cc(C(N)=O)c(NC(=O)C3CC3)n2)CCN(Cc2cccc(I)c2)CC1 [Example 54]	6.99	7.97	–
N#CCC1(n2cc(C(N)=O)c(NC(=O)C3CC3)n2)CCN(Cc2cccc(Cl)c2)CC1 [Example 59]	7.44	8.33	–
N#CCC1(n2cc(C(N)=O)c(NC(=O)C3CC3)n2)CCN(Cc2ccccc2C(F)(F)F)CC1 [Example 61]	6.93	8.08	–
N#CCC1(n2cc(C(N)=O)c(NC(=O)C3CC3)n2)CCN(Cc2cccc(C(F)(F)F)c2)CC1 [Example 62]	6.55	7.56	–
N#CCC1(n2cc(C(N)=O)c(NC(=O)C3CC3)n2)CCN(Cc2ccc(C(F)(F)F)cc2)CC1 [Example 63]	6.87	7.84	–
N#CCC1(n2cc(C(N)=O)c(NC(=O)C3CC3)n2)CCN(Cc2cccc(C#N)c2)CC1 [Example 65]	6.91	7.86	–

Compound	pKi [1]	pKi ([2]; read-out: JAK1 Ki)	pKi [2]
N#CCC1(n2cc(C(N)=O)c(NC(=O)C3CC3)n2)CCN(Cc2cccc(SC(F)(F)F)c2)CC1 [Example 67]	< 6.50	7.00	–
N#CCC1(n2cc(C(N)=O)c(NC(=O)C3CC3)n2)CCN(Cc2ccc(SC(F)(F)F)cc2)CC1 [Example 68]	< 6.50	7.41	–
CS(=O)(=O)c1ccccc1CN1CCC(CC#N)(n2cc(C(N)=O)c(NC(=O)C3CC3)n2)CC1 [Example 69]	6.91	7.82	–
CS(=O)(=O)c1cccc(CN2CCC(CC#N)(n3cc(C(N)=O)c(NC(=O)C4CC4)n3)CC2)c1 [Example 70]	< 6.50	7.51	–
CS(=O)(=O)c1ccc(CN2CCC(CC#N)(n3cc(C(N)=O)c(NC(=O)C4CC4)n3)CC2)cc1 [Example 71]	< 6.50	7.47	–
N#CCC1(n2cc(C(N)=O)c(NC(=O)C3CC3)n2)CCN(Cc2ccc3cc[nH]c3c2)CC1 [Example 72]	7.50	8.08	–
N#CCC1(n2cc(C(N)=O)c(NC(=O)C3CC3)n2)CCN(Cc2ccc3nc[nH]c3c2)CC1 [Example 73]	6.57	7.24	–
N#CCC1(n2cc(C(N)=O)c(NC(=O)C3CC3)n2)CCN(Cc2cccc(NS(=O)(=O)c3ccccc3)c2)CC1 [Example 74]	7.23	8.21	–
N#CCC1(n2cc(C(N)=O)c(NC(=O)C3CC3)n2)CCN(Cc2ccc(-c3ccn(C(F)(F)F)n3)cc2)CC1 [Example 83]	6.50	7.79	–
N#CCC1(n2cc(C(N)=O)c(NC(=O)C3CC3)n2)CCN(Cc2ccc(N3CCCC3)cc2)CC1 [Example 84]	< 6.50	7.07	–
N#CCC1(n2cc(C(N)=O)c(NC(=O)C3CC3)n2)CCN(Cc2ccc(-n3ccnc3)cc2)CC1 [Example 85]	6.77	7.35	–
N#CCC1(n2cc(C(N)=O)c(NC(=O)C3CC3)n2)CCN(Cc2ccc(-n3cncn3)cc2)CC1 [Example 86]	< 6.50	7.00	–
N#CCC1(n2cc(C(N)=O)c(NC(=O)C3CC3)n2)CCN(Cc2ccc(-n3cnc4ccccc43)cc2)CC1 [Example 88]	6.82	7.58	–
N#CCC1(n2cc(C(N)=O)c(NC(=O)C3CC3)n2)CCN(Cc2cnn(-c3ccccc3)c2)CC1 [Example 90]	6.87	8.14	–
N#CCC1(n2cc(C(N)=O)c(NC(=O)C3CC3)n2)CCN(Cc2ccc3c(c2)CSC3)CC1 [Example 91]	6.76	8.08	–
N#CCC1(n2cc(C(N)=O)c(NC(=O)C3CC3)n2)CCN(Cc2cccc(OC(F)F)c2)CC1 [Example 92]	7.06	7.96	–
N#CCC1(n2cc(C(N)=O)c(NC(=O)C3CC3)n2)CCN(Cc2cccc(NS(=O)(=O)C(F)(F)F)c2)CC1 [Example 93]	< 6.50	7.14	–
N#CCC1(n2cc(C(N)=O)c(NC(=O)C3CC3)n2)CCN(CCC(F)(F)F)CC1 [Example 96]	6.95	7.62	–
N#CCC1(n2cc(C(N)=O)c(NC(=O)C3CC3)n2)CCN(Cc2cccc(CN)c2)CC1 [Example 97]	6.79	7.39	–
N#CCC1(n2cc(C(N)=O)c(NC(=O)C3CC3)n2)CCN(C2CCN(C(=O)c3ccnc(C(F)(F)F)c3F)CC2)CC1 [Example 98]	6.82	7.13	–
CN[C@H]1CC[C@](CC#N)(n2cc(C(N)=O)c(NC(=O)C3CC3)n2)CC1 [Example 99]	< 6.50	–	7.04
CN[C@H]1CC[C@@](CC#N)(n2cc(C(N)=O)c(NC(=O)C3CC3)n2)CC1 [Example 100]	< 6.50	–	< 6.25
COC1CN([C@H]2CC[C@](CC#N)(n3cc(C(N)=O)c(NC(=O)C4CC4)n3)CC2)C1 [Example 101]	< 6.50	–	< 6.25
N#CC[C@]1(n2cc(C(N)=O)c(NC(=O)C3CC3)n2)CC[C@H](NC2CCOCC2)CC1 [Example 103]	< 6.50	–	7.42
N#CC[C@]1(n2cc(C(N)=O)c(NC(=O)C3CC3)n2)CC[C@@H](NC2CCOCC2)CC1 [Example 104]	< 6.50	–	< 6.25
CC1(C)CN([C@H]2CC[C@](CC#N)(n3cc(C(N)=O)c(NC(=O)C4CC4)n3)CC2)C1 [Example 105]	< 6.50	–	< 6.25
CC1(C)CN([C@H]2CC[C@@](CC#N)(n3cc(C(N)=O)c(NC(=O)C4CC4)n3)CC2)C1 [Example 106]	6.48	–	7.63
